Reference: publication PMC9841523 (Journal of Medicinal Chemistry, 2022)
Read-outs that look alike come from different tables or passages of the source.

Assays:
DNA-PK = molecular target: T1, DNA-PK (Homo sapiens, UniProt P78527); assay: Nanosyn Lipid Kinase screen; assay type: biochemical
T1 construct: purchased Promega V4106
Description: complex formation) controls.
Nanosyn Lipid Kinase screen. Biochemical inhibition of lipid and related protein kinases was determined by Nanosyn (Santa Clara, CA). […]
ADP formation using ADP-Glo (Promega). Kinase reactions were assembled in 384 well plates in a total volume of 20 µL as follows. […]
Compounds were serially pre-diluted in DMSO and added to the protein samples by acoustic dispensing (200 nL, Labcyte Echo). Concentration of DMSO was equalized to 1% in all samples. All test compounds were tested at 12 concentrations, 3x dilution intervals. The control samples (0%-inhibition in the absence of inhibitor, DMSO only) and 100%-inhibition (in the absence of enzyme) were assembled in replicates of four and were used to calculate %-inhibition in the presence of compounds. […]

[1] = test system: CaMK2a, CaMK2b, CaMK2d, CaMK2g; assay: KiNativ kinase panel; assay type: cell-based; conditions: 1 μM, MCF-7 Cells, Lys2
CK1g1 = molecular target: T2, CK1g1 (Homo sapiens, UniProt Q9HCP0); assay: KiNativ kinase panel; assay type: cell-based; conditions: 1 μM, MCF-7 Cells, Lys2
T2 construct: endogenous in cells; host or cells: MCF7

CK1g1, CK1g2, CK1g3 = assay: KiNativ kinase panel; assay type: cell-based, human; conditions: 1 μM, MCF-7 Cells, ATP Loop
CK1g3 = molecular target: T3, CK1g3 (Homo sapiens, UniProt Q9Y6M4); assay: KiNativ kinase panel; assay type: cell-based; conditions: 1 μM, MCF-7 Cells, Lys2
T3 construct: MCF7 cells were exposed to; endogenous in cells; host or cells: MCF7

DLK = molecular target: T4, DLK (Homo sapiens, UniProt Q12852); assay: KiNativ kinase panel; assay type: cell-based; conditions: 1 μM; MCF-7 Cells; Lys2; DLKSPNMLITYDDVVK
T4 construct: endogenous in cells; host or cells: MCF7

EGFR = molecular target: T5, EGFR (Homo sapiens, UniProt P00533); assay: KiNativ kinase panel; assay type: cell-based; conditions: 1 μM, MCF-7 Cells
T5 construct: MCF7 cells were exposed to; endogenous in cells; host or cells: MCF7

EphB2 = molecular target: T6, EphB2 (Homo sapiens, UniProt P29323); assay: KiNativ kinase panel; assay type: cell-based; conditions: 1 μM; MCF-7 Cells; Activation Loop; FLEDDTSDPTYTSALGGKIPIR
T6 construct: MCF7 cells were exposed to; endogenous in cells; host or cells: MCF7

FYN, SRC, YES = assay: KiNativ kinase panel; assay type: cell-based, human; conditions: 1 μM, MCF-7 Cells, Activation Loop
IRAK4 = molecular target: T7, IRAK4 (Homo sapiens, UniProt Q9NWZ3); assay: KiNativ kinase panel; assay type: cell-based; conditions: 1 μM, MCF-7 Cells
T7 construct: MCF7 cells were exposed to; endogenous in cells; host or cells: MCF7
T7 sequence (Q9NWZ3 1-460): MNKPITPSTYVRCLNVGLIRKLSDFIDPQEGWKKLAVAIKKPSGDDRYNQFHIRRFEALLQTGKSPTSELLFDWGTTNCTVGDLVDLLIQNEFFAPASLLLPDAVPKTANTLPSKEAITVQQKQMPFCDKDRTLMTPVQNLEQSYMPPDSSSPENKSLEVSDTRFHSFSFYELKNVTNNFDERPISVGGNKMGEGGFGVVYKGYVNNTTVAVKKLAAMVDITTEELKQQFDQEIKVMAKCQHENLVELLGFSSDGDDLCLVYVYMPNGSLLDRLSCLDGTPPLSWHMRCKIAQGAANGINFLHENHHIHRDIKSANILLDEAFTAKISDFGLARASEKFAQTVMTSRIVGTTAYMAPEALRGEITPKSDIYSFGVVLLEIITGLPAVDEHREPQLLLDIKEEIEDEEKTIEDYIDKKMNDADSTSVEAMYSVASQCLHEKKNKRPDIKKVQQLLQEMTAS

JAK1 domain1 = molecular target: T8, JAK1 domain1 (Homo sapiens, UniProt P23458); assay: KiNativ kinase panel; assay type: cell-based; conditions: 1 μM; MCF-7 Cells; Activation Loop; QLASALSYLEDKDLVHGNVCTKNLLLAR
T8 construct: MCF7 cells were exposed to; endogenous in cells; host or cells: MCF7

MAP3K2, MAP3K3 = assay: KiNativ kinase panel; assay type: cell-based, human; conditions: 1 μM; MCF-7 Cells; Lys2; DIKGANILR
MAPKAPK2, MAPKAPK3 = assay: KiNativ kinase panel; assay type: cell-based, human; conditions: 1 μM, MCF-7 Cells, Lys2
MARK2, MARK3 = assay: KiNativ kinase panel; assay type: cell-based, human; conditions: 1 μM, MCF-7 Cells, Lys2
MET = molecular target: T9, MET (Homo sapiens, UniProt P08581); assay: KiNativ kinase panel; assay type: cell-based; conditions: 1 μM; MCF-7 Cells; Activation Loop; TGAKLPVK
T9 construct: purchased ActivX Biosciences (KiNativ)

MST1 = molecular target: T10, MST1 (Homo sapiens, UniProt Q13043); assay: KiNativ kinase panel; assay type: cell-based; conditions: 1 μM; MCF-7 Cells; Lys1; ETGQIVAIKQVPVESDLQEIIK
T10 construct: purchased ActivX Biosciences (KiNativ)

NDR1, NDR2 = assay: KiNativ kinase panel; assay type: cell-based, human; conditions: 1 μM; MCF-7 Cells; Activation Loop; LSDFGLCTGLKK
NuaK2 = molecular target: T11, NuaK2 (Homo sapiens, UniProt Q9H093); assay: KiNativ kinase panel; assay type: cell-based; conditions: 1 μM; MCF-7 Cells; Lys1; LVAIKSIR
T11 construct: purchased ActivX Biosciences (KiNativ)

PI4KA, PI4KAP2 = assay: KiNativ kinase panel; assay type: cell-based, human; conditions: 1 μM, MCF-7 Cells, ATP
SMG1 = molecular target: T12, SMG1 (Homo sapiens, UniProt Q96Q15); assay: KiNativ kinase panel; assay type: cell-based; conditions: 1 μM, MCF-7 Cells, ATP
T12 construct: endogenous in cells; host or cells: MCF7

TAO1, TAO3 = assay: KiNativ kinase panel; assay type: cell-based, human; conditions: 1 μM, MCF-7 Cells, Lys2
[2] = test system: ZC1/HGK, ZC2/TNIK, ZC3/MINK; assay: KiNativ kinase panel; assay type: cell-based, human; conditions: 1 μM, MCF-7 Cells, Lys2

T5 sequence (P00533 25-1210): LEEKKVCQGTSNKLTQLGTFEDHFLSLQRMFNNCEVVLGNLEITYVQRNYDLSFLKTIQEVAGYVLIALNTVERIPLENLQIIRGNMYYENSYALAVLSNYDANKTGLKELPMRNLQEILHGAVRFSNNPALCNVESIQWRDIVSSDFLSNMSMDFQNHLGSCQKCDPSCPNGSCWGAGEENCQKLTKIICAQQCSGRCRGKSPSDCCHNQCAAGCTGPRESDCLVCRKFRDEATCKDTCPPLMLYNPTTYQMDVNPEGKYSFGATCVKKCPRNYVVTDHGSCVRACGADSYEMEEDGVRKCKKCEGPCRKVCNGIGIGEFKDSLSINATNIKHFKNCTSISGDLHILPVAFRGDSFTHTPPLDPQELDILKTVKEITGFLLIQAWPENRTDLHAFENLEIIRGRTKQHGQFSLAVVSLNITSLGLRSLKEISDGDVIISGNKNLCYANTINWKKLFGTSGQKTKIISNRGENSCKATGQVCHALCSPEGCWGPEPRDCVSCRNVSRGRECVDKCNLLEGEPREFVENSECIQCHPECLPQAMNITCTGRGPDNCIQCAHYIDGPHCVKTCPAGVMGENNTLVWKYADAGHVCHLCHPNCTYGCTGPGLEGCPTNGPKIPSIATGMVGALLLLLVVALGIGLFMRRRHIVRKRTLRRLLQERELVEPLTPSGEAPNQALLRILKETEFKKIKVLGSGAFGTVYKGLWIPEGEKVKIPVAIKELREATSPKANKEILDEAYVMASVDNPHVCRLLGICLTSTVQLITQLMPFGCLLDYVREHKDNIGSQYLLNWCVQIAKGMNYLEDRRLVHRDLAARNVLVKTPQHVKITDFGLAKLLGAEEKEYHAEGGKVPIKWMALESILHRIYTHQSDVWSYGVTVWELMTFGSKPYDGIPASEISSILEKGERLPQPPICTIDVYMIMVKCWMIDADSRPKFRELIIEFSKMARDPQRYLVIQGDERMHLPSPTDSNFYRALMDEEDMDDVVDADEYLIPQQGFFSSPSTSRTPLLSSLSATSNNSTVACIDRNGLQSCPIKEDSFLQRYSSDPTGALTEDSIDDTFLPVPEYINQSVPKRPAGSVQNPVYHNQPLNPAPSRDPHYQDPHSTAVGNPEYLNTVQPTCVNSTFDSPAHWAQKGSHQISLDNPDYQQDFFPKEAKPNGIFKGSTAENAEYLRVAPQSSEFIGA
T12 sequence (Q96Q15 whole entry): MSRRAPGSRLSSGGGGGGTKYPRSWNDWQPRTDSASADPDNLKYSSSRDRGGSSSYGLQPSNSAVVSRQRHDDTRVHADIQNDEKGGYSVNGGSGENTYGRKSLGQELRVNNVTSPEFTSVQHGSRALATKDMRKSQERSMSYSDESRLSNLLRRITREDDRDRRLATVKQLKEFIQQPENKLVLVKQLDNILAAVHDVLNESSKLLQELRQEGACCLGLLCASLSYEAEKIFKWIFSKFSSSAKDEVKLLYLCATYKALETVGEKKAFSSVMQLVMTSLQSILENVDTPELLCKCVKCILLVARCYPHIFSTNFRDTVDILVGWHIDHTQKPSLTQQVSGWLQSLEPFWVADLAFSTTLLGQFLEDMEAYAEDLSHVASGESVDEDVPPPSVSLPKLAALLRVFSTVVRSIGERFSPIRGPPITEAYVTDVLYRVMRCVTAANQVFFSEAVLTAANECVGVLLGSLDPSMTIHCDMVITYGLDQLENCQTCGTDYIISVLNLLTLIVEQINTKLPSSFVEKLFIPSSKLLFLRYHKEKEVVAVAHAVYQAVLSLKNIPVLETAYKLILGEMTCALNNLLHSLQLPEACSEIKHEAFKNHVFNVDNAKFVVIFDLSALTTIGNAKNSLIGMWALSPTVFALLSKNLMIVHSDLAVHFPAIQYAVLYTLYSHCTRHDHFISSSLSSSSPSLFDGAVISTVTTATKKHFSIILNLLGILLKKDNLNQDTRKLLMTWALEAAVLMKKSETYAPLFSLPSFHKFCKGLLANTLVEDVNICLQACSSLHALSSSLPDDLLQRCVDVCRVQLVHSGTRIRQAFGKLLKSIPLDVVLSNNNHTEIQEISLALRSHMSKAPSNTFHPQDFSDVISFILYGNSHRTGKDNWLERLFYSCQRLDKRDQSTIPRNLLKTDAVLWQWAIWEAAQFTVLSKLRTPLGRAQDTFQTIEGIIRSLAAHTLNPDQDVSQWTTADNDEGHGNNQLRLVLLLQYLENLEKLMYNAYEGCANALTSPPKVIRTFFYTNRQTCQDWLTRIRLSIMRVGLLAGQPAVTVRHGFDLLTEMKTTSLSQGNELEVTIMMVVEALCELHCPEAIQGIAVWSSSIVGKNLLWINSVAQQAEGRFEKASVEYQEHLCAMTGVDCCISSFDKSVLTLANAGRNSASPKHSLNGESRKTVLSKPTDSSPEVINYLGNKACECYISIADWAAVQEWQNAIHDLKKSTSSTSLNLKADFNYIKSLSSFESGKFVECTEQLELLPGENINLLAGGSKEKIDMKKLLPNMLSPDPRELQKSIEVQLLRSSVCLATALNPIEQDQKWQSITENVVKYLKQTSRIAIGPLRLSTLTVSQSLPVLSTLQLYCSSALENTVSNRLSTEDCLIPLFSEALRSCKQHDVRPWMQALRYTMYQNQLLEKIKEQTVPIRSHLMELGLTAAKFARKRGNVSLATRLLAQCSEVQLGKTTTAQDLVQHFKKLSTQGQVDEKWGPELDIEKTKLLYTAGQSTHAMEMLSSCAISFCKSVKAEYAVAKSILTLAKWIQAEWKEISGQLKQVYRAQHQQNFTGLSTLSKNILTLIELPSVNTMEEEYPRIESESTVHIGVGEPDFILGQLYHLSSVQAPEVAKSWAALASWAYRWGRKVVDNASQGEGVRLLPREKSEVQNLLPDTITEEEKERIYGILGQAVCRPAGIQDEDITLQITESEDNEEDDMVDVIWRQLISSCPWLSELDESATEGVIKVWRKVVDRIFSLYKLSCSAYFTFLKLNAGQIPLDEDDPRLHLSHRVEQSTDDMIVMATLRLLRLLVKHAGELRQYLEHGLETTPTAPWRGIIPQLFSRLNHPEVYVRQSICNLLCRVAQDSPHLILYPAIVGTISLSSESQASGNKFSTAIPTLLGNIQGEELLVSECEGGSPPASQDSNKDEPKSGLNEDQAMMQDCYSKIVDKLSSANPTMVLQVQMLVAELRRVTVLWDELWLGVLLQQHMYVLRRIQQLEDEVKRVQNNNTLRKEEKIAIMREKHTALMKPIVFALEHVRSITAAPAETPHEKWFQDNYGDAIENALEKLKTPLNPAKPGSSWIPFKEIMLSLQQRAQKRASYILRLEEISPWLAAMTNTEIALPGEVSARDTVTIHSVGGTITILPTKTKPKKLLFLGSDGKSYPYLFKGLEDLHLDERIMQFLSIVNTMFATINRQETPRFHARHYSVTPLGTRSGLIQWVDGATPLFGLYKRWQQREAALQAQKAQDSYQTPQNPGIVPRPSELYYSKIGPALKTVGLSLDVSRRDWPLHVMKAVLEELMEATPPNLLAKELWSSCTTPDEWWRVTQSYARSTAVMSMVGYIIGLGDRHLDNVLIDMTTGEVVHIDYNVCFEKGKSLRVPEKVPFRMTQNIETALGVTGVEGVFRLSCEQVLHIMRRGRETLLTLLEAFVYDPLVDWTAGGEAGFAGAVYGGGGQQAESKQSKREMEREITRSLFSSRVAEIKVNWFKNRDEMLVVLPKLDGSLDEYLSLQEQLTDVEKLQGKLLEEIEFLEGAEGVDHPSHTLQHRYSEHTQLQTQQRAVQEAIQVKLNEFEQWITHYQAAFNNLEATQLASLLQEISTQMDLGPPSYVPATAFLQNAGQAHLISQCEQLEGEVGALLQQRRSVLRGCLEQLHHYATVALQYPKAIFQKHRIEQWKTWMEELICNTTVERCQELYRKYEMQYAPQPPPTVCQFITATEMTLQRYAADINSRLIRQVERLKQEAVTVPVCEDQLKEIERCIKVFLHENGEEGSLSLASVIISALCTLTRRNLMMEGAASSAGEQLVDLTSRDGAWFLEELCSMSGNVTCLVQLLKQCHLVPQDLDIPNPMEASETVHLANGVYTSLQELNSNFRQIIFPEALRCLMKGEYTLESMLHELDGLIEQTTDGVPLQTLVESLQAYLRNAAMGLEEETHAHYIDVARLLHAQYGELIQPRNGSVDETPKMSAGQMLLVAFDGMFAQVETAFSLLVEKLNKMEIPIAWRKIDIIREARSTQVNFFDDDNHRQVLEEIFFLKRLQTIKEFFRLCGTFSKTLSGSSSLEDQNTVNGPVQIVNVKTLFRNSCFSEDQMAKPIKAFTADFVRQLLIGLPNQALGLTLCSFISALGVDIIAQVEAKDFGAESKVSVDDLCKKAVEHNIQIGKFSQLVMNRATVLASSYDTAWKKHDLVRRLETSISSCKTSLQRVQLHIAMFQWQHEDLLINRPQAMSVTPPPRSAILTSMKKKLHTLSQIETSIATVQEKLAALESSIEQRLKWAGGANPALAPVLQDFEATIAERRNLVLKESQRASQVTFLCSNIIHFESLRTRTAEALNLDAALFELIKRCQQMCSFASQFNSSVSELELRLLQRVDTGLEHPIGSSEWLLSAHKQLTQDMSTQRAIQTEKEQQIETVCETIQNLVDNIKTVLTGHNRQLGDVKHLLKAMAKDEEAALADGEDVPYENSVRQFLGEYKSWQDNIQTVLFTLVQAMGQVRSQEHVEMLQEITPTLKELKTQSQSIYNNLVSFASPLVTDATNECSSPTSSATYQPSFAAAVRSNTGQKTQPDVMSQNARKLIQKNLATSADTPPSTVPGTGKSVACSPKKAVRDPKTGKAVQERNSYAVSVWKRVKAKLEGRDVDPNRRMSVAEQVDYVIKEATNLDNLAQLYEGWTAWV

SMILES	KiNativ Kinase Panel Data (DLK)	KiNativ Kinase Panel Data (EGFR; Lys1, IPVAIKELR)	KiNativ Kinase Panel Data (EphB2)	KiNativ Kinase Panel Data (IRAK4; Lys1, GYVNNTTVAVKK)	KiNativ Kinase Panel Data (IRAK4; Lys2, DIKSANILLDEAFTAK)	KiNativ Kinase Panel Data (JAK1 domain1)	KiNativ Kinase Panel Data (MAP3K2, MAP3K3)	KiNativ Kinase Panel Data (MET)	KiNativ Kinase Panel Data (MST1)	KiNativ Kinase Panel Data (NDR1, NDR2)	KiNativ Kinase Panel Data (NuaK2)	KiNativ Kinase Panel Data (SMG1; DTVTIHSVGGTITILPTKTKPK)	KiNativ Kinase Panel Data (SMG1; SYPYLFKGLEDLHLDER)	further results
CO[C@H]1C[C@@H]2CC[C@@H](C)[C@@](O)(O2)C(=O)C(=O)N2CCCC[C@H]2C(=O)O[C@H]([C@H](C)C[C@@H]2CC[C@@H](OC(=O)NCCOCCOCCOCCOCCOCCOCCOCCOCCC(=O)N3CCc4cc(Cn5nc(-c6ccc7oc(N)nc7c6)c6c(N)ncnc65)ccc4C3)[C@H](OC)C2)C[C@@H](O)[C@H](C)/C=C(\C)[C@@H](O)[C@@H](OC)C(=O)[C@H](C)C[C@H](C)/C=C/C=C/C=C/1C [compound 38]	-43.9	-7.4	26.5	-7.0	-19.3	0.8	-12.6	3.9	10.7	25.0	18.8	0.8	21.6	IC50 (DNA-PK): > 1000 nM; KiNativ Kinase Panel Data ([1]; […]): 26.2; KiNativ Kinase Panel Data (CK1g1; […]): 4.7; KiNativ Kinase Panel Data (CK1g1, CK1g2, CK1g3; […]): 8.9; KiNativ Kinase Panel Data (CK1g3; […]): 13.2; KiNativ Kinase Panel Data (EGFR; Activation Loop, […]): -1.8; KiNativ Kinase Panel Data (FYN, SRC, YES; […]): -6.3; KiNativ Kinase Panel Data (MAPKAPK2, MAPKAPK3; […]): -19.9; KiNativ Kinase Panel Data (MARK2, MARK3; […]): -0.4; KiNativ Kinase Panel Data (PI4KA, PI4KAP2; […]): -38.9; KiNativ Kinase Panel Data (TAO1, TAO3; […]): -1.7; KiNativ Kinase Panel Data ([2]; […]): 8.5
CO[C@H]1C[C@@H]2CC[C@@H](C)[C@@](O)(O2)C(=O)C(=O)N2CCCC[C@H]2C(=O)O[C@H]([C@H](C)C[C@@H]2CC[C@@H](OC(=O)NCCOCCOCCOCCOCCOCCOCCOCCOCCC(=O)NCCS(=O)(=O)c3ccc(C(=O)N4CCOc5ccc(-c6ccc(N)nc6)cc5C4)c(C)c3F)[C@H](OC)C2)C[C@@H](O)[C@H](C)/C=C(\C)[C@@H](O)[C@@H](OC)C(=O)[C@H](C)C[C@H](C)/C=C/C=C/C=C/1C [compound 40]	-20.3	-27.8	1.3	-35.0	-35.4	-1.7	-18.2	6.3	18.2	-18.5	16.0	-11.1	11.7	IC50 (DNA-PK; Nanosyn, with FKBP12): > 1000 nM; KiNativ Kinase Panel Data ([1]; DLKPENLLLASK): -30.6; KiNativ Kinase Panel Data (CK1g1; DVKPENFLIGR): 1.3; KiNativ Kinase Panel Data (CK1g1, CK1g2, CK1g3; KIGCGNFGELR): -7.8; KiNativ Kinase Panel Data (CK1g3; DVKPENFLIGRPGNK): -6.6; KiNativ Kinase Panel Data (EGFR; Activation Loop, LLGAEEKEYHAEGGKVPIK): -40.0; KiNativ Kinase Panel Data (FYN, SRC, YES; QGAKFPIKWTAPEAALYGR): -28.5; KiNativ Kinase Panel Data (MAPKAPK2, MAPKAPK3; DVKPENLLYTSK): -27.1; KiNativ Kinase Panel Data (MARK2, MARK3; DLKAENLLLDADMNIK): 15.7; KiNativ Kinase Panel Data (PI4KA, PI4KAP2; SGTPMQSAAKAPYLAK): -5.7; KiNativ Kinase Panel Data (TAO1, TAO3; DIKAGNILLTEPGQVK): -29.7; KiNativ Kinase Panel Data ([2]; DIKGQNVLLTENAEVK): -13.4
